From paper PMC5766581, “NF-κB inducing kinase is a therapeutic target for systemic lupus erythematosus” (Nature Communications, 2018)

How the values were obtained:
Hyl = target: T1, Hyl (Homo sapiens, UniProt P42679); test: SelectScreen kinase panel; assay type: biochemical
T1 construct: purchased Invitrogen / ThermoFisher SelectScreen

C57BL/6 mice = test: Delayed-type hypersensitivity model; assay type: in vivo, mouse; settings: 200 mg/kg BID P.O.
Protocol: Mice were immunized with OVA (100 μg, SC) (Sigma) in complete Freund’s adjuvant (Spectrum Chemicals and Laboratory Products) on day 0 and then challenged again with OVA (10 μg in PBS, SC right ear) on day 6. Ear thickness was measured by calipers, and unchallenged ear thickness was subtracted from OVA challenged ear thickness after 24 and 44 h. […] Investigators were not blinded to experimental samples.

PKC_theta = target: T2, PKC_theta (Homo sapiens, UniProt Q04759); test: SelectScreen kinase panel; assay type: biochemical
T2 construct: purchased Invitrogen / ThermoFisher SelectScreen
T2 sequence (Q04759 whole entry): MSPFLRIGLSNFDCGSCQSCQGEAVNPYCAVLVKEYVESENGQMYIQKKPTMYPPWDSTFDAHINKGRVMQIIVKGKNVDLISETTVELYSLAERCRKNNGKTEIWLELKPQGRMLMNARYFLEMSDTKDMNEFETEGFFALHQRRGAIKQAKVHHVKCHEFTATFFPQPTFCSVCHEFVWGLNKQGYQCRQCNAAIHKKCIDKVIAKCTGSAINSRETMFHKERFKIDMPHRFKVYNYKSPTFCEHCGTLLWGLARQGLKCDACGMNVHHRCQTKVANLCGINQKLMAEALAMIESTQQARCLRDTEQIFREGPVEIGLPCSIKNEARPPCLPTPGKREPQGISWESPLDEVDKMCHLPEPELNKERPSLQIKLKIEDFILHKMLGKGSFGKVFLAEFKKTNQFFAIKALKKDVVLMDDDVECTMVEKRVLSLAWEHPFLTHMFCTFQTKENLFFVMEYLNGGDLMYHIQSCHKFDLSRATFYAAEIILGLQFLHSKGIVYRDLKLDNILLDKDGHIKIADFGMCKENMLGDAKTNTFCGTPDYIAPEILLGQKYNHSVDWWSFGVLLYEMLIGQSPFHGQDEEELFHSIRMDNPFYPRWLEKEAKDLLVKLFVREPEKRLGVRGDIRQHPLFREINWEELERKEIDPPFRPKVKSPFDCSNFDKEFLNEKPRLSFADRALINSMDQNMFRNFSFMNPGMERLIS
In short: (§1)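 Using one of three vendor formats (Z′-LYTE, Adapta, LanthaScreen), Invitrogen measured compound effects across its SelectScreen kinase collection. Average inhibition percentages are listed.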

Rse = target: T3, Rse (Homo sapiens, UniProt Q06418); test: SelectScreen kinase panel; assay type: biochemical
T3 construct: purchased Invitrogen / ThermoFisher SelectScreen
In short: as §1

MST4 = target: T4, MST4 (Homo sapiens, UniProt Q9P289); test: SelectScreen kinase panel; assay type: biochemical
T4 construct: purchased Invitrogen / ThermoFisher SelectScreen
T4 sequence (Q9P289 whole entry): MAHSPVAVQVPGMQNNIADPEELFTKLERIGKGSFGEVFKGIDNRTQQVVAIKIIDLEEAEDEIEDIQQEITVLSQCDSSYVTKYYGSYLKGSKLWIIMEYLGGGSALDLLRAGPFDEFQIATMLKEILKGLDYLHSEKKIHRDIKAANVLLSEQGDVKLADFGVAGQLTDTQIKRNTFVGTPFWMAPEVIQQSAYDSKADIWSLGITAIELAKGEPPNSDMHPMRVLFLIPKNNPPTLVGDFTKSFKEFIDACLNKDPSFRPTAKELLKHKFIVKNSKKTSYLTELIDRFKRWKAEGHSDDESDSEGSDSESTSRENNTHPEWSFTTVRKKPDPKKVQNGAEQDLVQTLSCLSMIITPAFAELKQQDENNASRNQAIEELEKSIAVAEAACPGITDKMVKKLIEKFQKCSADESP
In short: as §1

MST3 = target: T5, MST3 (Homo sapiens, UniProt Q9Y6E0); test: SelectScreen kinase panel; assay type: biochemical
T5 construct: purchased Invitrogen / ThermoFisher SelectScreen
T5 sequence (Q9Y6E0 whole entry): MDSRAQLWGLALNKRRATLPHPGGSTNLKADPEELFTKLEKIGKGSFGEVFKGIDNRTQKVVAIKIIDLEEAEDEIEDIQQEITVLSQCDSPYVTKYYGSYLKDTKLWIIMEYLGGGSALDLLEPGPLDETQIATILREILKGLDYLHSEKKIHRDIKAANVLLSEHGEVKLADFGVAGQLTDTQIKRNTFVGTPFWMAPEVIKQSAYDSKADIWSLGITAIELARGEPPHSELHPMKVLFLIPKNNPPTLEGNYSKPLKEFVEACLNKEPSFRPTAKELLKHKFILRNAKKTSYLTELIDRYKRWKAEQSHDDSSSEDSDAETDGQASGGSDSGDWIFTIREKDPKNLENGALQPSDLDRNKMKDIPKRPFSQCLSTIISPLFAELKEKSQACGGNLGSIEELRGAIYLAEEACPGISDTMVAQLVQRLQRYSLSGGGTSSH
In short: as §1

ROCK2 = target: T6, ROCK2 (Homo sapiens, UniProt O75116); test: SelectScreen kinase panel; assay type: biochemical
T6 construct: purchased Invitrogen / ThermoFisher SelectScreen
T6 sequence (O75116 whole entry): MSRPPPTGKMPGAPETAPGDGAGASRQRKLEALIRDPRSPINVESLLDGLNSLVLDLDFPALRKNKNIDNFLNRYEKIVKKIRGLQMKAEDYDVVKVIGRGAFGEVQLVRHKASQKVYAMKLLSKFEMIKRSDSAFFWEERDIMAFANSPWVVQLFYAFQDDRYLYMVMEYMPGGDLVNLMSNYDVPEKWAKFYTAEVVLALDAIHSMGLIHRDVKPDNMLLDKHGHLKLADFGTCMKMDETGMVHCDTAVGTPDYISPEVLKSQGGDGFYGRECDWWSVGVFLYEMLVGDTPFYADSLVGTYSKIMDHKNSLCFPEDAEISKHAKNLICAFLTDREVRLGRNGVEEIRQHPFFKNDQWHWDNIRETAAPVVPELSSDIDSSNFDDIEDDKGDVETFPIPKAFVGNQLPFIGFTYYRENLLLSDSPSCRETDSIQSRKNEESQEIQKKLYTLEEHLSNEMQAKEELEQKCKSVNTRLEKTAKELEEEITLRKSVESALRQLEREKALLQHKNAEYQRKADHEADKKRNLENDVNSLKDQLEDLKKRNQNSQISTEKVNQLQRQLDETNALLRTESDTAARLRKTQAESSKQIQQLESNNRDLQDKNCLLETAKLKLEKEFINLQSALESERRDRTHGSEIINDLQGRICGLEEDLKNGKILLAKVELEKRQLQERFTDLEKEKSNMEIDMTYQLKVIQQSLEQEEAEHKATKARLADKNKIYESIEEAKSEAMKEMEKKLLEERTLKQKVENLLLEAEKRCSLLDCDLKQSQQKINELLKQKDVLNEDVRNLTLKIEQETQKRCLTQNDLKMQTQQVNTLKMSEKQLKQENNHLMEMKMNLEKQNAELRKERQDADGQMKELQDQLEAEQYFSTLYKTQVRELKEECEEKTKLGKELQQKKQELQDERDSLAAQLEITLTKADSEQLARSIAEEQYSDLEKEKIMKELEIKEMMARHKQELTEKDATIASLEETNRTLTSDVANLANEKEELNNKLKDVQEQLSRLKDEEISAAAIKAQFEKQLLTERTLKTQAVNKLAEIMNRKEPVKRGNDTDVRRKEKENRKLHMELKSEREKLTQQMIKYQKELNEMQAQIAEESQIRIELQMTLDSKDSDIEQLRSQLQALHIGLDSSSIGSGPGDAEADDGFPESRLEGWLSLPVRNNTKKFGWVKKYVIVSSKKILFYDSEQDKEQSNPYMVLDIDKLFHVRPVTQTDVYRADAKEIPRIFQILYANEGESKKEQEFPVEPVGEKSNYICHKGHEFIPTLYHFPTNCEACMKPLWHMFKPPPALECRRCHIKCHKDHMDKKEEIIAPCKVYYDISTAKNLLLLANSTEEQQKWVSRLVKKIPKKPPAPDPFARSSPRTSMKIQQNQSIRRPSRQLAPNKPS
In short: as §1

PDGFR_alpha = target: T7, PDGFR_alpha (Homo sapiens, UniProt P16234); test: SelectScreen kinase panel; assay type: biochemical
T7 construct: purchased Invitrogen / ThermoFisher SelectScreen
In short: as §1

Abl = target: T8, Abl (Homo sapiens, UniProt P00519); test: SelectScreen kinase panel; assay type: biochemical
T8 construct: purchased Invitrogen / ThermoFisher SelectScreen
T8 sequence (P00519 whole entry): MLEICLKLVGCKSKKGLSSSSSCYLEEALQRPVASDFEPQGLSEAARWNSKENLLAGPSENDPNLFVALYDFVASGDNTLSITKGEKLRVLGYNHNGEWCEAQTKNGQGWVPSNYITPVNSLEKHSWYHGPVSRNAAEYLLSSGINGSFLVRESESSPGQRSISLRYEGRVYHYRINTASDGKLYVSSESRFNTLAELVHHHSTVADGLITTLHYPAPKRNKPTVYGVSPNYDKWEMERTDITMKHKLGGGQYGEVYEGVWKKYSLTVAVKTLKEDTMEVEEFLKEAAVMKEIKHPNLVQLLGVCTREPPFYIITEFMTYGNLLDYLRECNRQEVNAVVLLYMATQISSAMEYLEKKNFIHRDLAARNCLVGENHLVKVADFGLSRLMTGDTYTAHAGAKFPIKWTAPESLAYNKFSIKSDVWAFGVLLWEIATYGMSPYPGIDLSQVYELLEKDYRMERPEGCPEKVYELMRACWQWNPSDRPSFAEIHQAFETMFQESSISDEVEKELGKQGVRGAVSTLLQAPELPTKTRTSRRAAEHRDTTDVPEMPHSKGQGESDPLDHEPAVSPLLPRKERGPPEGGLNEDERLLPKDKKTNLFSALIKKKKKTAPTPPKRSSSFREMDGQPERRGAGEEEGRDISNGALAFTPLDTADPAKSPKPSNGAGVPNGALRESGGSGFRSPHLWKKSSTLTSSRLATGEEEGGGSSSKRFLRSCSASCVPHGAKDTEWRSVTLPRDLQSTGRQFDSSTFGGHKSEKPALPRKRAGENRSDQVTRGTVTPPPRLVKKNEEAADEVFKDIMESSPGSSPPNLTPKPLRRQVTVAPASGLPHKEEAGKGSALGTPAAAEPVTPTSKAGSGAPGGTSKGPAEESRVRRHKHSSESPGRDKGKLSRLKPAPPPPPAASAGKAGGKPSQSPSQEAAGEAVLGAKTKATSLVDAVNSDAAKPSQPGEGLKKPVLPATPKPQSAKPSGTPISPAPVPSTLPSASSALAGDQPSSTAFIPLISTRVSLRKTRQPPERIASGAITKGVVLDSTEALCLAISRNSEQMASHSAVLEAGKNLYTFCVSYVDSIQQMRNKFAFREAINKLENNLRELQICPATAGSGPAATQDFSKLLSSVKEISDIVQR
In short: as §1

P38_beta = target: T9, P38_beta (Homo sapiens, UniProt Q15759); test: SelectScreen kinase panel; assay type: biochemical
T9 construct: purchased Invitrogen / ThermoFisher SelectScreen
T9 sequence (Q15759 whole entry): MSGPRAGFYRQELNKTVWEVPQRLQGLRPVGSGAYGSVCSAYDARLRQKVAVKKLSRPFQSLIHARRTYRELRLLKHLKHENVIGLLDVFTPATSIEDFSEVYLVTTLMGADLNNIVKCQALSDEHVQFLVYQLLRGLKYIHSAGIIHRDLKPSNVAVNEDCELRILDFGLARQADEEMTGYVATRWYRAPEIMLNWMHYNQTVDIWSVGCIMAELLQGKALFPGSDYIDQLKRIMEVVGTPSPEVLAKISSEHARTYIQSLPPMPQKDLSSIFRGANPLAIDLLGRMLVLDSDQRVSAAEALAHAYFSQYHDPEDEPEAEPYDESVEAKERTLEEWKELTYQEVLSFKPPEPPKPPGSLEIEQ
In short: as §1

human B cells = test: Human B cell rhCD40L proliferation assay; assay type: cell-based; settings: Homo sapiens, B-cell; thymidine incorporation, day four; read-out: Human B cell anti-CD40 proliferation IC50
NZB/W F1 mice = test: rAdV-IFNα-accelerated NZB/W F1 lupus model, 4-week biomarker study; assay type: in vivo; settings: 180 mg/kg BID P.O.
Protocol: Age-matched (NZB x NZW) F1 mice were purchased from Jackson Laboratory. Fourteen to fifteen weeks old female NZB/W F1 mice were injected i.v. with 1.2 × 10^8 rAD5-CMV-IFNα (rAdV-IFNα) particles (Genentech) to accelerate disease[34],[69]. […] In efficacy studies, proteinuria and survival were tracked through day 84. A 4-week PD study was performed to measure cell subsets, serum Ig, chemokines, cytokines, and gene expression.
Kidneys were immersed in 10% neutral buffered formalin at ambient temperature for 24 h, then paraffin-embedded using routine methods. Four micron histologic sections were stained with Periodic acid–Schiff (PAS) for evaluation of glomerulonephritis and hematoxylin and eosin (H&E) for visual evaluation of interstitial inflammation by light microscopy. Scoring by the pathologist was performed in a blinded fashion. Glomerulonephritis severity scoring was on a 4-point semi-quantitative scale: “0” – normal or mild global lesions in <50% of glomeruli, “1”—global lesions in > 50% of glomeruli, <20% of which are severe (defined as >1 segment with <3 patent capillaries), “2”—global lesions in >50% of glomeruli, 20–80% of which are severe, and “3”— >80% of glomeruli with severe global lesions. Chronic pyelitis, cortical periarteritis, and tubulointerstitial nephritis severity was determined by blinded disease scoring. Severity scores for tubulointerstitial nephritis, periarteritis, and pyelitis were all on 4-point semiquantitative scales: “0”—no significant inflammation, “1”—sparse or focal inflammatory infiltrates, “2”—occasional moderately sized inflammatory infiltrates, and “3”—frequent large inflammatory infiltrates. Proteinuria measurements were done by dipstick (Multistix, Bayer Diagnostics). Protein concentration was assigned a proteinuria score with trace = […] = 1, 100 mg/dl = 2, >300 mg/dl = 4, and dead mice = 5.

T1 sequence (P42679 whole entry): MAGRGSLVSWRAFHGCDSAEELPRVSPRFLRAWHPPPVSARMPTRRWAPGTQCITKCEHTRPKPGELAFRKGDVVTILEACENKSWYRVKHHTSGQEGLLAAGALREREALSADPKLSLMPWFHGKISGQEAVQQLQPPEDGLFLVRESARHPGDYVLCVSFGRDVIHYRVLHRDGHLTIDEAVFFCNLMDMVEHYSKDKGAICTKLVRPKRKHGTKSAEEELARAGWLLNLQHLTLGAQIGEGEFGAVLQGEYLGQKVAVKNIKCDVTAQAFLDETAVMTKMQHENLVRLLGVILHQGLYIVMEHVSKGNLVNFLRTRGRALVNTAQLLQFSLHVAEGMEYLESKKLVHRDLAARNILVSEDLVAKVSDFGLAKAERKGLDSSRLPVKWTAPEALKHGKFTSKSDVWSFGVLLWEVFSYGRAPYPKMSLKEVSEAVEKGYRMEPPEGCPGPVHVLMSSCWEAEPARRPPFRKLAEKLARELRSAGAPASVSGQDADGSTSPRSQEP

COc1cc(C(N)=O)nc(-c2cccc(C#C[C@]3(O)CCN(C)C3=O)c2)c1 [NIK SMI1]
inhibition at 1 µM (Hyl): 4.5% | effect in delayed type hypersensitivity study (C57BL/6 mice): partial effect | inhibition at 1 µM (PKC_theta): -6% | inhibition at 1 µM (Rse): 12% | inhibition at 1 µM (MST4): 33.5% | inhibition at 1 µM (MST3): 32.5% | inhibition at 1 µM (ROCK2): 7.5% | inhibition at 1 µM (PDGFR_alpha): -4.5% | inhibition at 1 µM (Abl): 9.5% | inhibition at 1 µM (P38_beta): 9% | IC50 (human B cells): > 10 µM | frequency and numbers of splenic B cells, germinal center B cells and plasma cells (NZB/W F1 mice; 4 weeks): decreased | frequency and numbers of splenic T effector memory (TEM) and T follicular helper (TFH) cells (NZB/W F1 mice; 4 weeks): significantly reduced | frequency and numbers of total CD4+ T-cells (NZB/W F1 mice; 4 weeks): did not affect | histopathologic scores of glomerulonephritis (NZB/W F1 mice; 4 weeks): reduced | kidney expression of CCL9, CCL2, CXCL13 and CXCL11 (NZB/W F1 mice; 4 weeks): reduced | serum CXCL16 (NZB/W F1 mice; 4 weeks): significantly reduced | serum TNF and IL-12p40 (NZB/W F1 mice; 4 weeks): reduced | spleen weight or total splenocyte count (NZB/W F1 mice; 4 weeks): did not have a substantial effect | splenic expression of ICOS and IL-21 (NZB/W F1 mice; 4 weeks): reduced | splenic expression of Immunoglobulin J (Igj) (NZB/W F1 mice; 4 weeks): strongly suppressed | suppression of serum anti-histone autoantibodies (NZB/W F1 mice; 4 weeks, vs BR3-mIgG2a): superior to BAFF blockade | terminal exposure vs in vitro IC70 (NZB/W F1 mice; 12 hours after final dose): at or above the in vitro-determined IC70 concentration
